Results reported in patent US20210154208A1, “Method to Identify Agents That Can Overcome Inhibition Caused By Drug-protein Binding of the Human Plasma Protein, Alpha-1-acid Glycoprotein” (The Johns Hopkins University, priority 2019, published 2021).

Legend:
MOLM-14 cells [1] = assay: Modified PIA, MTT proliferation with purified human AGP; format: cell-based; settings: for ability to displace TKI (TTT-3002, CEP-701) from AGP: MOLM-14, AGP 1.0 mg/mL, increasing doses of competitor, FIG. 13; for inhibition of TKI activity by purified human AGP: MOLM-14, purified human AGP at physiologic concentration (1 mg/mL), sub-physiologic also tested
Protocol: (§1) In the original plasma inhibitory assay (PIA), FLT3/ITD-expressing cells are co-incubated with plasma samples from patients receiving a FLT3 TKI, and Western blotting analysis of FLT3 auto-phosphorylation is used to measure the extent of FLT3 inhibitory activity present in their plasma.(9) This can then be compared to total plasma drug levels to determine the relative efficacy of a drug in vivo compared to its activity in vitro. […] To model these effects in the pre-clinical setting, we modified the PIA assay. Whereas the PIA was designed to assess in vivo drug activity with regards to a specific target (e.g.: inhibition of FLT3 auto-phosphorylation by TKI), the modified PIA is similarly cell-based, but measures the clinically relevant biological end-points of cytotoxicity and proliferation inhibition, instead of target inhibition. In the modified assay, FLT3/ITD cell lines are cultured in the presence of human plasma or purified human plasma proteins and treated with a range of concentrations of the drug of interest. […] Furthermore, like the original PIA, Western blot analysis can be performed on cells treated in this manner to study specific pathways of interest (FIG. 1B). […] The modified PIA utilizes the general endpoint of cytotoxicity.
(§2) Where Δ is the fold-change in IC50, KA is the drug-protein association constant, P0 is the total protein concentration and PA is the drug-bound protein concentration. From this relationship, in the absence of other drug-protein interactions, fold-change is linearly related to drug-free protein concentration. […] When the analysis also takes into account drug-bound protein, these curves can be used to directly measure KA. To that end, we performed the modified PIA using purified AGP against the staurosporine-derived FLT3 TKI, using MOLM-14 cells (FIG. 4A). For comparison, we also assayed the anti-proliferative effects of non-specific protein kinase C inhibition by staurosporine itself in HL-60 cells (FLT3 wild-type AML).
(§3) Cells in logarithmic growth are resuspended in either human plasma or serum-free RPMI 1640 media supplemented with the plasma protein of interest and seeded in 96-well format at 50 μL per well. Cell density is 2×10^5 cells per well for MOLM-14 and Ba/F3-FLT3/ITD cells. To each well 50 μL of 2× drug dilution in RPMI 1640 media with 10% serum was added. Each condition is plated in quadruplicate. The cells are then incubated at 37° C. After 44 hours of treatment, 10 μL of 5 mg/mL thiazolyl blue tetrazolium bromide (MTT, Sigma) in PBS, sterile-filtered, is added to each well, and the plates are incubated for an additional 4 hours at 37° C. 100 of 10% sodium dodecyl sulfate (JT Baker) in 10 mM hydrochloric acid (Fisher) is then added to each well, and the plates are incubated at 37° C. overnight. Optical absorbance at 570 nm is measured via plate reader (iMark, Bio-Rad), averaging across technical replicates.

HL-60 cells = assay: Modified PIA with purified AGP, anti-proliferative effect of staurosporine; format: cell-based, human; settings: HL-60 cells (FLT3 wild-type AML)
Text: as §2
Cells in logarithmic growth are resuspended in either human plasma or serum-free RPMI 1640 media supplemented with the plasma protein of interest and seeded in 96-well format at 50 μL per well. Cell density is 2×10^5 cells per well for MOLM-14 and Ba/F3-FLT3/ITD cells. To each well 50 μL of 2× drug dilution in RPMI 1640 media with 10% serum was added. Each condition is plated in quadruplicate. The cells are then incubated at 37° C. […] Optical absorbance at 570 nm is measured via plate reader (iMark, Bio-Rad), averaging across technical replicates.

FLT3 = assay: Western blot of FLT3 autophosphorylation and downstream signaling; format: cell-based, human
Protocol: Cells in logarithmic growth are resuspended in either plasma or RPMI 1640 media supplemented with either 10% FBS serum or physiologic concentrations of purified plasma proteins. The cells are cultured for 1 hour at 37° C. in the presence of drug(s) with intermittent shaking. The cells are then washed, lysed with RIPA buffer (Sigma) per manufacturer's protocol, and total cell lysates separated by sodium dodecyl sulfate polyacrylamide gel electrophoresis (Invitrogen) with Western transfer onto polyvinyl difluoride membranes (Millipore). The membranes are probed for FLT3 by using the S-18 antibody (Santa Cruz), or for other proteins using the indicated antibodies (Cell Signaling Technology), followed by horseradish peroxidase-conjugated goat anti-rabbit secondary antibodies with enhanced chemiluminescence detection (Bio-Rad).

MOLM-14 cells [2] = assay: Modified plasma inhibition assay (PIA), MTT proliferation in 50% human plasma; format: cell-based; settings: MOLM-14, 48 hours; for fold inhibition (increase in IC50) in the presence of 50% human plasma: MTT, 50% human plasma vs 10% FBS
Protocol: as §1
as §3, with “100 of 10% sodium dodecyl sulfate (JT Baker) in 10 mM hydrochloric acid (Fisher) is then added to each well, and the plates are incubated at 37° C. overnight.” left out

AGP = AGP (Homo sapiens, UniProt P02763); settings: reported value; cited from earlier work
Sequence of AGP (P02763 19-201): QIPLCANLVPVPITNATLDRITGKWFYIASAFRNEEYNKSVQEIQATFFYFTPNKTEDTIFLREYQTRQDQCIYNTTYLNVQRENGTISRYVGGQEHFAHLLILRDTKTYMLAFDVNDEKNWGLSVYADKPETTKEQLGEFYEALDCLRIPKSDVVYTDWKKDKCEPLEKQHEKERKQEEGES

Ba/F3-FLT3/ITD-Luc cells = assay: Ba/F3-FLT3/ITD-Luc engrafted mouse model with human AGP, bioluminescent imaging; format: in vivo, BALB/c mice; settings: mifepristone by oral gavage during treatment, imaged day 9
Protocol: We transplanted sublethally-irradiated BALB/c mice with Ba/F3-FLT3/ITD-Luc cells (Ba/F3 cells expressing both FLT3/ITD and a luciferase reporter). […] Twenty-four hours after the final treatment (day 9), the mice were again imaged to assess response (FIG. 8C).
BALB/c mice were transplanted after 300 cGy of sublethal X-ray irradiation using a CIXD irradiator (Xstrahl). 5×10^5 Ba/F3-FLT3/ITD-Luc cells were injected via tail vein. Intraperitoneal injections were performed using PBS vehicle with human AGP (Sigma) at 20 mg/mL. […] Mifepristone (Sigma) was dissolved in 50% ethanol and 50% (2-hydroxypropyl)-□-cyclodextrin (Sigma) and administered by oral gavage every 48 hours. Mice were imaged by intraperitoneal injection of luciferin (3 mg) and visualizing on an IVIS Spectrum imager (Caliper LifeSciences) using Living Image software for analysis on day 5 (to monitor engraftment) and on day 9 (to assess drug effect).

## O=C1CCC(N2C(=O)c3ccccc3C2=O)C(=O)N1 (centres unmarked) [thalidomide]
MOLM-14 cells [1]
  ability to displace TKI (TTT-3002, CEP-701) from AGP: cannot displace the more tightly-bound TKI from AGP

## CN[C@@H]1C[C@H]2O[C@@](C)([C@@H]1OC)n1c3ccccc3c3c4c(c5c6ccccc6n2c5c31)C(=O)NC4 [staurosporine]
HL-60 cells
  anti-proliferative activity in the presence of AGP: no appreciable activity in the presence of AGP until saturating concentrations of drug were used

## CNC(=O)[C@@]1(N)C[C@H]2O[C@]1(C)n1c3ccccc3c3c4c(c5c6ccccc6n2c5c31)C(=O)NC4 [TTT-3002]
FLT3; MOLM-14, 1 hour, TKI 10 nM and 100 nM, human plasma
  inhibition of FLT3 phosphorylation in the presence of human plasma: significant decrease in inhibition of FLT3 phosphorylation
MOLM-14 cells [2]; 50% human plasma vs 10% fetal bovine serum
  effect of human plasma on IC50: significantly increased the IC50
MOLM-14 cells [2]
  fold inhibition (increase in IC50) in the presence of 50% human plasma: 9 fold
MOLM-14 cells [1]; MOLM-14, purified AGP at physiologic concentrations
  fold inhibition by AGP (fold-change in IC50): 30 fold
MOLM-14 cells [1]
  inhibition of TKI activity by purified human AGP: comparable inhibition to that observed with human plasma

## CN(C)CCC=C1c2ccccc2CCc2ccccc21 [amitriptyline]
MOLM-14 cells [1]
  ability to displace TKI (TTT-3002, CEP-701) from AGP: cannot displace the more tightly-bound TKI from AGP

## C[C@]12O[C@H](C[C@]1(O)CO)n1c3ccccc3c3c4c(c5c6ccccc6n2c5c31)CNC4=O [lestaurtinib]
MOLM-14 cells [1]; MOLM-14, purified AGP at physiologic concentrations, predicted
  fold inhibition by AGP, predicted: > 1000 fold
MOLM-14 cells [1]; human AGP
  shift in IC50 with human AGP: 500 fold

## CNC(=O)c1cc(Oc2ccc(NC(=O)Nc3ccc(Cl)c(C(F)(F)F)c3)cc2)ccn1 [sorafenib]
MOLM-14 cells [1]
  inhibition of TKI activity by purified human AGP: not significant inhibited

## CC(C)(C)c1cc(NC(=O)Nc2ccc(-c3cn4c(n3)sc3cc(OCCN5CCOCC5)ccc34)cc2)no1 [quizartinib]
MOLM-14 cells [2]
  fold inhibition (increase in IC50) in the presence of 50% human plasma: 37 fold
MOLM-14 cells [1]
  inhibition of TKI activity by purified human AGP: not significant inhibited

## CC#C[C@]1(O)CC[C@H]2[C@@H]3CCC4=CC(=O)CCC4=C3[C@@H](c3ccc(N(C)C)cc3)C[C@@]21C [mifepristone]
FLT3; MOLM-14, TTT-3002 (2 nM), inhibiting AGP, increasing mifepristone
  restoration of FLT3 inhibition by TTT-3002 in the presence of AGP: dose-dependent restoration of FLT3 inhibition
FLT3; MOLM-14, mifepristone alone
  effect of agent alone on FLT3 autophosphorylation or downstream signaling: no effect
AGP
  KA (association constant with AGP): 7 to 8 µM⁻¹
MOLM-14 cells [1]; MOLM-14, concentrations of maximal disinhibiting effect
  effect of agent alone on cell growth: no appreciable effect on cell growth
MOLM-14 cells [1]; MOLM-14, increasing concentrations of mifepristone, TTT-3002 plus AGP
  effect on TTT-3002 dose-response curve in the presence of purified AGP: dose-response curve shifted back to that seen in the absence of AGP
MOLM-14 cells [1]; MOLM-14, no AGP
  effect on TTT-3002 dose-response curves in the absence of AGP: no impact
Ba/F3-FLT3/ITD-Luc cells
  response of FLT3/ITD-expressing cells (bioluminescence), mifepristone added to midostaurin/AGP: regression of the transplanted cells at levels comparable to those of the midostaurin alone treated mice
